Laboratory results: patent US9981945B2, “Pyrimidine derivatives as CFTR modulators” (NuBridge BioSciences, priority 2015, dated 2018)

Target: T1, ΔF508 mutant CFTR (Homo sapiens, UniProt P13569, DEL508-508)
T1 construct: expressed in transfected cells; host or cells: Fischer rat thyroid (FRT) cells
Assay: Fluorescence (YFP halide quenching) assay of ΔF508 mutant CFTR activity in FRT cells
Type: cell-based
Design: key: fold of mean activity with forskolin alone (I− quenching rate)
Conditions: FRT cells expressing ΔF508-CFTR and YFP-H148Q/I152L, rescued at 27° C. 20-24 h; forskolin 20 μM + test compound 20 μM for 20 min; I− influx rate normalized to forskolin alone
Description: The ΔF508 mutant CFTR activities of the CFTR modulators are detected using the Fluorescence Assay developed by Pedemonte (Pedemonte N., et al., Antihypertensive 1,4-dihydropyridines as correctors of the cystic fibrosis transmembrane conductance regulator channel gating defect caused by cystic fibrosis mutations, Mol. Pharmacol., 2005, 68, 1736-1746).
Fischer rat thyroid (FRT) cells, stably transfected with ΔF508 were retransfected with the YFP-H148Q/I152L fluorescent protein. The cells were plated (100,000 cells/well) on black 96-well microplates with clear plastic bottom (Corning Life Sciences, Acton, Mass.).
The 96-well microplates containing FRT cells expressing F508-CFTR and the halide-sensitive YFP were incubated at 27° C. for 20 to 24 h to allow rescue of the mutant protein to the plasma membrane. After incubation, cells were washed with PBS (containing 137 mM NaCl, 2.7 mM KCl, 8.1 mM Na2HPO4, 1.5 mM KH2PO4, 1 mM CaCl2, and 0.5 mM MgCl2) and stimulated for 20 min with forskolin (20 μM) and test compounds (20 μM) in a final volume of 60 μl. Microplates were then transferred to a microplate reader for CFTR activity determination. Each assay consisted of a continuous 14-s fluorescence reading (5 points per second) with 2 s before and 12 s after injection of 165 μl of an iodide-containing solution (PBS with Cl^− replaced by I^−). Final iodide concentration in the wells was 100 mM. […] To determine I^− influx rate, the final 11 s of the data for each well were fitted with an exponential function to extrapolate initial slope. CFTR activity was determined by measuring the rate of fluorescence quenching induced by extracellular addition of I^−. Data are normalized to the mean activity measured in the presence of forskolin alone.

T1 sequence (P13569 with tags, fused parts or gaps DEL508-508): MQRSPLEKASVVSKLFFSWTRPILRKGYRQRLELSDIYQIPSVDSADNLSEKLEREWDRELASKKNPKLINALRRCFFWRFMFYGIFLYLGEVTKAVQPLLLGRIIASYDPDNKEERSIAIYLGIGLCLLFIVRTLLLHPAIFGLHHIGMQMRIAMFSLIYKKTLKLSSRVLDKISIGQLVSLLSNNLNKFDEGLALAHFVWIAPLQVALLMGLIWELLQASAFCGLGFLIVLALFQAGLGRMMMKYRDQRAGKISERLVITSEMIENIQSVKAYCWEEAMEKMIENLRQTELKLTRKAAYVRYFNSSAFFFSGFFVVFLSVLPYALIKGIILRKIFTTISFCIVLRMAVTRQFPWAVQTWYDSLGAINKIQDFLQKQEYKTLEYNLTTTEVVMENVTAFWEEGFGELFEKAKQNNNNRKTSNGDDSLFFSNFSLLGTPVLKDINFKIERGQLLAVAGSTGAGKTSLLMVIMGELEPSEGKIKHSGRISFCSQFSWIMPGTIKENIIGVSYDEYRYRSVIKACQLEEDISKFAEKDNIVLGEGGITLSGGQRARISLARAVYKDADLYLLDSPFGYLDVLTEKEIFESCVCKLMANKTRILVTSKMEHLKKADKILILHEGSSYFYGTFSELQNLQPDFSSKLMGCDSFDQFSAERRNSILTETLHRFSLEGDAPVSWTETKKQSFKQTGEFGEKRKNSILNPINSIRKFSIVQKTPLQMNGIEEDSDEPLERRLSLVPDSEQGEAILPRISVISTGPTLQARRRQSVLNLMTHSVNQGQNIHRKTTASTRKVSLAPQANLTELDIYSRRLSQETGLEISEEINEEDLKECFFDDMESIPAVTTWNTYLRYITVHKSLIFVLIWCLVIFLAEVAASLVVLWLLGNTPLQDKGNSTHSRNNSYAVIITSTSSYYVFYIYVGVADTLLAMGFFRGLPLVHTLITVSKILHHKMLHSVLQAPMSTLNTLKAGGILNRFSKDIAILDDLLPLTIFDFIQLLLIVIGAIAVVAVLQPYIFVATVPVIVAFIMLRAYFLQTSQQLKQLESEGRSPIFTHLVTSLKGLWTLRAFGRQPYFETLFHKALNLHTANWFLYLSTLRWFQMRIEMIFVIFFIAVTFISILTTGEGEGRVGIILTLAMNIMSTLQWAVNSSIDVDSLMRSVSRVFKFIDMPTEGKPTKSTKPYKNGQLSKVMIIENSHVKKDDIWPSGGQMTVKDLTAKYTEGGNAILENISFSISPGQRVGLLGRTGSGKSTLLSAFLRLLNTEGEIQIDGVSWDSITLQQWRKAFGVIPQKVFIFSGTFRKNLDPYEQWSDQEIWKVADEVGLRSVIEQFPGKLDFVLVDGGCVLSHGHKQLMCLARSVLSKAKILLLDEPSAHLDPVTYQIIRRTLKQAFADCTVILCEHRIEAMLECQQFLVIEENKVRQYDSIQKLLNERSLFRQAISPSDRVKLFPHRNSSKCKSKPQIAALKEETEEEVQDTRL

CFTR Activity | SMILES
2.1 | Cl.Nc1cc(F)c(-c2c(F)cccc2F)nc1C(=O)Nc1cncnc1OCC1CCCNC1 (stereo not shown) [Example 35, 3-amino-6-(2,6-difluorophenyl)-5-fluoro-N-(4-(piperidin-3-ylmethoxy)pyrimidin-5-yl)picolinamide hydrochloride]
1.1 | Cl.Nc1cc(F)c(-c2ccccc2)nc1C(=O)Nc1cncnc1OC1CCNC1 (stereo not shown) [Example 38, 3-amino-5-fluoro-6-phenyl-N-(4-(pyrrolidin-3-yloxy)pyrimidin-5-yl)picolinamide hydrochloride]
1.9 | Cl.O=C(Nc1cncnc1OC1CCCNCC1)c1nc(-c2c(F)cccc2F)ccc1F (stereo not shown) [Example 40, N-(4-(azepan-4-yloxy)pyrimidin-5-yl)-6-(2,6-difluorophenyl)-3-fluoropicolinamide hydrochloride]
1.3 | Cl.O=C(Nc1cncnc1OCC1CCNCC1)c1ccc(C(F)(F)F)c(-c2c(F)cccc2F)n1 [Example 43, 6-(2,6-difluorophenyl)-N-(4-(piperidin-4-ylmethoxy)pyrimidin-5-yl)-5-(trifluoromethyl)picolinamide hydrochloride]
1.8 | Cl.O=C(Nc1cncnc1OCC1CNC1)c1ccc(C(F)(F)F)c(-c2c(F)cccc2F)n1 [Example 44, N-(4-(azetidin-3-ylmethoxy)pyrimidin-5-yl)-6-(2,6-difluorophenyl)-5-(trifluoromethyl)picolinamide hydrochloride]
2.7 | Cl.O=C(Nc1cncnc1OC1CCNCC1)c1ccc(C(F)(F)F)c(-c2c(F)cccc2F)n1 [Example 45, 6-(2,6-difluorophenyl)-N-(4-(piperidin-4-yloxy)pyrimidin-5-yl)-5-(trifluoromethyl)picolinamide hydrochloride]
4.1 | Cl.Nc1cc(C(F)(F)F)c(-c2c(F)cccc2F)nc1C(=O)Nc1cncnc1OC1CCCNCC1 (stereo not shown) [Example 48, 3-amino-N-(4-(azepan-4-yloxy)pyrimidin-5-yl)-6-(2,6-difluorophenyl)-5-(trifluoromethyl)picolinamide hydrochloride]
2.0 | Cl.NCC(CCl)COc1ncncc1NC(=O)c1ccc(C(F)(F)F)c(-c2c(F)cccc2F)n1 (stereo not shown) [Example 54, N-(4-(3-amino-2-(chloromethyl)propoxy)pyrimidin-5-yl)-6-(2,6-difluorophenyl)-5-(trifluoromethyl)picolinamide hydrochloride]
4.4 | Cl.NCC(CCl)COc1ncncc1NC(=O)c1nc(-c2c(F)cccc2F)c(C(F)(F)F)cc1N (stereo not shown) [Example 55, 3-amino-N-(4-(3-amino-2-(chloromethyl)propoxy)pyrimidin-5-yl)-6-(2,6-difluorophenyl)-5-(trifluoromethyl)picolinamide hydrochloride]
2.5 | Cl.NCC(CO)COc1ncncc1NC(=O)c1ccc(F)c(-c2c(F)cccc2F)n1 (stereo not shown) [Example 56, N-(4-(3-amino-2-(hydroxymethyl)propoxy)pyrimidin-5-yl)-6-(2,6-difluorophenyl)-5-fluoropicolinamide hydrochloride]
2.1 | Cl.NCC(CO)COc1ncncc1NC(=O)c1nc(-c2c(F)cccc2F)c(F)cc1N (stereo not shown) [Example 57, 3-amino-N-(4-(3-amino-2-(hydroxymethyl)propoxy)pyrimidin-5-yl)-6-(2,6-difluorophenyl)-5-fluoropicolinamide hydrochloride]
2.8 | Cl.NCC(CO)COc1ncncc1NC(=O)c1ccc(C(F)(F)F)c(-c2c(F)cccc2F)n1 (stereo not shown) [Example 58, N-(4-(3-amino-2-(hydroxymethyl)propoxy)pyrimidin-5-yl)-6-(2,6-difluorophenyl)-5-(trifluoromethyl)picolinamide hydrochloride]

Continued, compound first:

SMILES | CFTR Activity
Cl.NCC(CCl)Oc1ncncc1NC(=O)c1nc(-c2c(F)cccc2F)c(F)cc1N (stereo not shown) [Example 33, 3-amino-N-(4-((1-amino-3-chloropropan-2-yl)oxy)pyrimidin-5-yl)-6-(2,6-difluorophenyl)-5-fluoropicolinamide hydrochloride] | 2.2
Cl.NCC(CCl)COc1ncncc1NC(=O)c1nc(-c2c(F)cccc2F)c(F)cc1N (stereo not shown) [Example 34, 3-amino-N-(4-(3-amino-2-(chloromethyl)propoxy)pyrimidin-5-yl)-6-(2,6-difluorophenyl)-5-fluoropicolinamide hydrochloride] | 2.0
Cl.NCCCCOc1ncncc1NC(=O)c1nc(-c2c(F)cccc2F)c(F)cc1N [Example 36, 3-amino-N-(4-(4-aminobutoxy)pyrimidin-5-yl)-6-(2,6-difluorophenyl)-5-fluoropicolinamide] | 2.4
Cl.Nc1cc(F)c(-c2c(F)cccc2F)nc1C(=O)Nc1cncnc1OC1CCCC(N)C1 (stereo not shown) [Example 37, 3-amino-N-(4-((3-aminocyclohexyl)oxy)pyrimidin-5-yl)-6-(2,6-difluorophenyl)-5-fluoropicolinamide] | 4.1
Cl.O=C(Nc1cncnc1OC1CCNCC1)c1ccc(F)c(-c2ccncc2)n1 [Example 39, 3-fluoro-N-(4-(piperidin-4-yloxy)pyrimidin-5-yl)-[2,4′-bipyridine]-6-carboxamide hydrochloride] | 0.5
COc1cccc(F)c1-c1nc(C(=O)Nc2cncnc2OC2CCCNCC2)ccc1F.Cl (stereo not shown) [Example 41, N-(4-(azepan-4-yloxy)pyrimidin-5-yl)-5-fluoro-6-(2-fluoro-6-methoxyphenyl)picolinamide hydrochloride] | 1.8
Cl.O=C(Nc1cncnc1OC1CCCNCC1)c1ccc(C(F)(F)F)c(-c2c(F)cccc2F)n1 (stereo not shown) [Example 42, N-(4-(azepan-4-yloxy)pyrimidin-5-yl)-6-(2,6-difluorophenyl)-5-(trifluoromethyl)picolinamide hydrochloride] | 2.4
Cl.N[C@H]1CC[C@H](Oc2ncncc2NC(=O)c2ccc(C(F)(F)F)c(-c3c(F)cccc3F)n2)CC1 [Example 46, N-(4-(((1r,4r)-4-aminocyclohexyl)oxy)pyrimidin-5-yl)-6-(2,6-difluorophenyl)-5-(trifluoromethyl)picolinamide hydrochloride] | 3.2
O=C(Nc1cncnc1OCC1CCOCC1)c1ccc(C(F)(F)F)c(-c2c(F)cccc2F)n1 [Example 47, 6-(2,6-difluorophenyl)-N-(4-((tetrahydro-2H-pyran-4-yl)methoxy)pyrimidin-5-yl)-5-(trifluoromethyl)picolinamide] | 0.1
Cl.Nc1cc(C(F)(F)F)c(-c2c(F)cccc2F)nc1C(=O)Nc1cncnc1OCC1CCNCC1 [Example 49, 3-amino-6-(2,6-difluorophenyl)-N-(4-(piperidin-4-ylmethoxy)pyrimidin-5-yl)-5-(trifluoromethyl)picolinamide hydrochloride] | 3.2
Cl.Nc1cc(C(F)(F)F)c(-c2c(F)cccc2F)nc1C(=O)Nc1cncnc1OCC1CNC1 [Example 50, 3-amino-N-(4-(azetidin-3-ylmethoxy)pyrimidin-5-yl)-6-(2,6-difluorophenyl)-5-(trifluoromethyl)picolinamide hydrochloride] | 2.9
Cl.Nc1cc(C(F)(F)F)c(-c2c(F)cccc2F)nc1C(=O)Nc1cncnc1OC1CCNCC1 [Example 51, 3-amino-6-(2,6-difluorophenyl)-N-(4-(piperidin-4-yloxy)pyrimidin-5-yl)-5-(trifluoromethyl)picolinamide hydrochloride] | 4.0
Cl.Nc1cc(C(F)(F)F)c(-c2c(F)cccc2F)nc1C(=O)Nc1cncnc1O[C@H]1CC[C@H](N)CC1 [Example 52, 3-amino-N-(4-(((1r,4r)-4-aminocyclohexyl)oxy)pyrimidin-5-yl)-6-(2,6-difluorophenyl)-5-(trifluoromethyl)picolinamide hydrochloride] | 4.3
Cl.Nc1cc(C(F)(F)F)c(-c2ccccc2)nc1C(=O)Nc1cncnc1OC1CCNC1 (stereo not shown) [Example 53, 3-amino-6-phenyl-N-(4-(pyrrolidin-3-yloxy)pyrimidin-5-yl)-5-(trifluoromethyl)picolinamide hydrochloride] | 2.4
Cl.NCC(CO)COc1ncncc1NC(=O)c1nc(-c2c(F)cccc2F)c(C(F)(F)F)cc1N (stereo not shown) [Example 59, 3-amino-N-(4-(3-amino-2-(hydroxymethyl)propoxy)pyrimidin-5-yl)-6-(2,6-difluorophenyl)-5-(trifluoromethyl)picolinamide hydrochloride] | 3.0
Cl.NC1CCCC(Oc2ncncc2NC(=O)c2ccc(C(F)(F)F)c(-c3c(F)cccc3F)n2)C1 (stereo not shown) [Example 60, N-(4-((3-aminocyclohexyl)oxy)pyrimidin-5-yl)-6-(2,6-difluorophenyl)-5-(trifluoromethyl)picolinamide hydrochloride] | 4.8
